{"source": "PubChem BioAssay AID1259407", "about": "(Chemical Carcinogenesis Research Information System (CCRIS), 2018)", "test_system": "CCRIS mutagenicity, Ames/micronucleus/aberration tests", "test": "CCRIS mutagenicity studies", "note": "Calls of active or inactive are those of the source. No rule for the calls is given here."}
{"molecule": "CC(=O)Nc1cccc2c1-c1ccccc1C2", "values": [{"measurement": "mutagenic call", "setting": "Test System: AMES SALMONELLA TYPHIMURIUM, Strain/Indicator: TA98, Metabolic Activation: HUMAN, RED BLOOD CELL, CYTOSOL, Method: PREINCUBATION", "value": "inactive; negative"}, {"measurement": "mutagenic call", "setting": "Test System: AMES SALMONELLA TYPHIMURIUM, Strain/Indicator: TA1538, Metabolic Activation: RAT, LIVER, CYTOSOL, 4-ACETYLAMINOFLUORENE, Method: STANDARD PLATE", "value": "inactive; negative"}, {"measurement": "mutagenic call", "setting": "Test System: AMES SALMONELLA TYPHIMURIUM, Strain/Indicator: TA1538, Metabolic Activation: RAT, LIVER, CYTOSOL, AROCLOR 1254, Method: STANDARD PLATE", "value": "active; positive"}, {"measurement": "mutagenic call", "setting": "Test System: AMES SALMONELLA TYPHIMURIUM, Strain/Indicator: TA1538, Metabolic Activation: RAT, LIVER, CYTOSOL, Method: STANDARD PLATE", "value": "inactive; negative"}, {"measurement": "mutagenic call", "setting": "Test System: AMES SALMONELLA TYPHIMURIUM, Strain/Indicator: TA1538, Metabolic Activation: RAT, LIVER, MICROSOMES, 4-ACETYLAMINOFLUORENE, Method: STANDARD PLATE", "value": "active; positive"}, {"measurement": "mutagenic call", "setting": "Test System: AMES SALMONELLA TYPHIMURIUM, Strain/Indicator: TA1538, Metabolic Activation: RAT, LIVER, MICROSOMES, AROCLOR 1254, Method: STANDARD PLATE", "value": "active; positive"}, {"measurement": "mutagenic call", "setting": "Test System: AMES SALMONELLA TYPHIMURIUM, Strain/Indicator: TA1538, Metabolic Activation: RAT, LIVER, MICROSOMES, Method: STANDARD PLATE", "value": "inactive; negative"}, {"measurement": "mutagenic call", "setting": "Test System: AMES SALMONELLA TYPHIMURIUM, Strain/Indicator: TA1538, Metabolic Activation: RAT, LIVER, S-9, PHENOBARBITAL, Method: STANDARD PLATE", "value": "active; positive"}, {"measurement": "mutagenic call", "setting": "Test System: E. COLI, Strain/Indicator: WP2 UVRA, Metabolic Activation: HAMSTER, LIVER, S-9, AROCLOR 1254, Method: STANDARD PLATE", "value": "inactive; negative"}, {"measurement": "mutagenic call", "setting": "Test System: E. COLI, Strain/Indicator: WP2 UVRA, Metabolic Activation: HAMSTER, LIVER, S-9, Method: STANDARD PLATE", "value": "inactive; negative"}, {"measurement": "mutagenic call", "setting": "Test System: E. COLI, Strain/Indicator: WP2 UVRA, Metabolic Activation: MOUSE, LIVER, S-9, AROCLOR 1254, Method: STANDARD PLATE", "value": "inactive; negative"}, {"measurement": "mutagenic call", "setting": "Test System: E. COLI, Strain/Indicator: WP2 UVRA, Metabolic Activation: MOUSE, LIVER, S-9, Method: STANDARD PLATE", "value": "inactive; negative"}, {"measurement": "mutagenic call", "setting": "Test System: E. COLI, Strain/Indicator: WP2 UVRA, Metabolic Activation: NONE, Method: STANDARD PLATE", "value": "inactive; negative"}, {"measurement": "mutagenic call", "setting": "Test System: E. COLI, Strain/Indicator: WP2 UVRA, Metabolic Activation: RAT, LIVER, S-9, AROCLOR 1254, Method: STANDARD PLATE", "value": "inactive; negative"}, {"measurement": "mutagenic call", "setting": "Test System: E. COLI, Strain/Indicator: WP2 UVRA, Metabolic Activation: RAT, LIVER, S-9, Method: STANDARD PLATE", "value": "inactive; negative"}, {"measurement": "mutagenic call", "setting": "Test System: MOUSE LYMPHOMA, Strain/Indicator: L5178Y (TK+/TK-), Metabolic Activation: NONE, Method: SUSPENSION/PLATE", "value": "inactive; negative"}, {"measurement": "mutagenic call", "setting": "Test System: UDS, Strain/Indicator: HEPG2/THYMIDINE INCORPORATION, Metabolic Activation: NONE, Method: AUTORADIOGRAPHY", "value": "inactive; negative"}]}
{"molecule": "O=Nc1c(O)ccc2ccccc12", "values": [{"measurement": "mutagenic call", "setting": "Test System: AMES SALMONELLA TYPHIMURIUM, Strain/Indicator: TA98, Metabolic Activation: NONE, Method: PREINCUBATION", "value": "inactive; negative"}]}
